Tests used:
Type in all cases: in vivo
Megoura viciae = assay: Vetch aphid (Megoura viciae) leaf disk test; conditions: foliar, 120 h, read-out: mortality in comparison with untreated controls (aphid mortality)
Description: For evaluating control of vetch aphid (Megoura viciae) through contact or systemic means the test unit consisted of 24-well-microtiter plates containing broad bean leaf disks.
The compounds were formulated using a solution containing 75% v/v water and 25% v/v DMSO. Different concentrations of formulated compounds were sprayed onto the leaf disks at 2.5 μl, using a custom built micro atomizer, at two replications.
After application, the leaf disks were air-dried and 5-8 adult aphids placed on the leaf disks inside the microtiter plate wells. The aphids were then allowed to suck on the treated leaf disks and incubated at about 23±1° C. and about 50±5% relative humidity for 5 days. Aphid mortality and fecundity was then visually assessed.

Myzus persicae = assay: Green peach aphid (Myzus persicae) systemic artificial diet test; conditions: 72 h, read-out: mortality in comparison with untreated controls (aphid mortality)
Text: For evaluating control of green peach aphid (Myzus persicae) through systemic means the test unit consisted of 96-well-microtiter plates containing liquid artificial diet under an artificial membrane.
The compounds were formulated using a solution containing 75% v/v water and 25% v/v DMSO. Different concentrations of formulated compounds were pipetted into the aphid diet, using a custom built pipetter, at two replications.
After application, 5-8 adult aphids were placed on the artificial membrane inside the microtiter plate wells. The aphids were then allowed to suck on the treated aphid diet and incubated at about 23±1° C. and about 50±5% relative humidity for 3 days. Aphid mortality and fecundity was then visually assessed.

Tetranychus spp = assay: Spider mite (Tetranychus spp) potted cotton plant spray test; conditions: sprayed potted cotton plants, 72 hours after treatment, read-out: mortality in comparison with untreated controls
Description: The active compound is dissolved at the desired concentration in a mixture of 1:1 (vol:vol) distilled water:acetone. The test solution is prepared at the day of use. Potted cotton plants at two weeks of age were cleaned, air dried and inoculated with approximately 50 mites of various stages. The potted plants are sprayed after the pest population has been recorded. Percent mortality is recorded 72 hours after treatment.

Nephotettix virescens = assay: Rice green leafhopper (Nephotettix virescens) rice seedling spray test; conditions: 72 h, read-out: mortality in comparison with untreated controls
Description: (§1) Rice seedlings were cleaned and washed 24 hours before spraying. The active compounds were formulated in 50:50 acetone:water (vol:vol), and 0.1% vol/vol surfactant (EL 620) was added. Potted rice seedlings were sprayed with 5 ml test solution, air dried, placed in cages and inoculated with 10 adults. Treated rice plants were kept at about 28-29° C. and relative humidity of about 50-60%. Percent mortality was recorded after 72 hours.

Dichromothrips corbetti = assay: Orchid thrips (Dichromothrips corbetti) floral-immersion test; conditions: 72 h, read-out: mortality in comparison with untreated controls
Description: Dichromothrips corbetti adults used for bioassay were obtained from a colony maintained continuously under laboratory conditions. For testing purposes, the test compound is diluted in a 1:1 mixture of acetone:water (vol:vol), plus 0.01% vol/vol Alkannuls® EL 620 surfactant.
Thrips potency of each compound was evaluated by using a floral-immersion technique. Plastic petri dishes were used as test arenas. All petals of individual, intact orchid flowers were dipped into treatment solution and allowed to dry. Treated flowers were placed into individual petri dishes along with about 20 adult thrips. The petri dishes were then covered with lids. All test arenas were held under continuous light and a temperature of about 28° C. for duration of the assay. After 3 days, the numbers of live thrips were counted on each flower, and along inner walls of each petri dish. The percent mortality was recorded 72 hours after treatment.

Nilaparvata lugens = assay: Rice brown plant hopper (Nilaparvata lugens) rice seedling spray test; conditions: 72 h, read-out: mortality in comparison with untreated controls
Description: as §1, with “(vol:vol)” for “(vol:vol),”

CC[n+]1c([O-])c(-c2ccccc2)c(=O)n2c1CCCC2c1ccc(Cl)nc1 (stereo not shown) [Compound C-9]
> 75%: mortality at 2500 ppm (Megoura viciae) | mortality at 2500 ppm (Myzus persicae) | mortality at 500 ppm (Tetranychus spp)

Cn1c2[n+](c([O-])c(-c3ccccc3)c1=O)[C@@H](c1cnc(Cl)s1)CC2 [Compound C-42]
> 75%: mortality at 500 ppm (Nephotettix virescens) | mortality at 500 ppm (Tetranychus spp) | mortality at 500 ppm (Dichromothrips corbetti) | mortality at 500 ppm (Nilaparvata lugens)

From patent US11019820B2 (BASF SE, priority 2013, dated 2021)
